{
  "source": "ChEMBL document CHEMBL4507292",
  "about": "(2021)",
  "key": {"[1]": {"target": "5-hydroxytryptamine receptor 2A (Homo sapiens) (UniProt P28223)", "sequence (P28223 whole entry)": "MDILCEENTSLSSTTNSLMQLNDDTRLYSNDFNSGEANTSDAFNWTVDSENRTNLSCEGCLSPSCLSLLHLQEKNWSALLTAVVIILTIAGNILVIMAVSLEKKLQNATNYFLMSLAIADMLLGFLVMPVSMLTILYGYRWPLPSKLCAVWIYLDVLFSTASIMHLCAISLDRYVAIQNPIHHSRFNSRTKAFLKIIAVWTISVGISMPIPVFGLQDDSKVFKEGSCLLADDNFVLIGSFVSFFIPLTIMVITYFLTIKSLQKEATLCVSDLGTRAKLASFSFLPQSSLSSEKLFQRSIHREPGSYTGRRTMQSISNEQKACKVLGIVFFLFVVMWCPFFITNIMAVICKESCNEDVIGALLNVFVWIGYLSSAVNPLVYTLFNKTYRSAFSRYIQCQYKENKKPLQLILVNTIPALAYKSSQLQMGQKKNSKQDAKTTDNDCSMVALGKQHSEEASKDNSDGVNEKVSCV", "settings": "Compound concentration 10.0 uM"}, "[2]": {"target": "Neuropeptide Y receptor type 2 (Homo sapiens) (UniProt P49146)", "sequence (P49146 whole entry)": "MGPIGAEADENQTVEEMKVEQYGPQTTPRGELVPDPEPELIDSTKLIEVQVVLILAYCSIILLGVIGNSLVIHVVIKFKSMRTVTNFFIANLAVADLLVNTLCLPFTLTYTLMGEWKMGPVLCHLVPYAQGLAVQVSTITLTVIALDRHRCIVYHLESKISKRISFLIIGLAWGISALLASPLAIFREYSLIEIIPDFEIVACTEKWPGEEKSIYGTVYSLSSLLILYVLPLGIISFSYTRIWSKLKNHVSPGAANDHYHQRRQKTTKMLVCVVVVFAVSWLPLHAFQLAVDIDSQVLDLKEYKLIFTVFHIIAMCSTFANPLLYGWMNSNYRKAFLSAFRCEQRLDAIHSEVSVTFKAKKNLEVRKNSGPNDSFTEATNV", "assay": "Inhibition of Neuropeptide Y Y2 at 10 µM in the Eurofins-Panlabs radioligand binding assay (Eurofins_assay_257110)", "settings": "Compound concentration 10.0 uM"}, "[3]": {"target": "Mitogen-activated protein kinase 3 (Homo sapiens) (UniProt P27361)", "sequence (P27361 whole entry)": "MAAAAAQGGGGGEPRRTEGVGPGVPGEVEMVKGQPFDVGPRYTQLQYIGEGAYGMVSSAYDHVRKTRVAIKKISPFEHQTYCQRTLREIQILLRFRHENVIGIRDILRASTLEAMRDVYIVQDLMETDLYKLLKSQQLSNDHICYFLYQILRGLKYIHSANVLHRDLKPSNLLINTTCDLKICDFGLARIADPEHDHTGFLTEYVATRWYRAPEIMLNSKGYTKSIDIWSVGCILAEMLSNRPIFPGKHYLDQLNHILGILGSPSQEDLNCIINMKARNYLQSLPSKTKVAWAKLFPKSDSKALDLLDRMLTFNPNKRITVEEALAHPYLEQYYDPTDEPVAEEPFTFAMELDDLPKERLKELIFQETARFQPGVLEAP", "assay": "Inhibition of Protein Serine/Threonine Kinase, MAPK3 (ERK1) at 10 µM in the Eurofins-Panlabs enzyme assay (Eurofins_assay_171000)", "settings": "Compound concentration […]"}, "[4]": {"target": "Polyunsaturated fatty acid lipoxygenase ALOX12 (Homo sapiens) (UniProt P18054)", "sequence (P18054 whole entry)": "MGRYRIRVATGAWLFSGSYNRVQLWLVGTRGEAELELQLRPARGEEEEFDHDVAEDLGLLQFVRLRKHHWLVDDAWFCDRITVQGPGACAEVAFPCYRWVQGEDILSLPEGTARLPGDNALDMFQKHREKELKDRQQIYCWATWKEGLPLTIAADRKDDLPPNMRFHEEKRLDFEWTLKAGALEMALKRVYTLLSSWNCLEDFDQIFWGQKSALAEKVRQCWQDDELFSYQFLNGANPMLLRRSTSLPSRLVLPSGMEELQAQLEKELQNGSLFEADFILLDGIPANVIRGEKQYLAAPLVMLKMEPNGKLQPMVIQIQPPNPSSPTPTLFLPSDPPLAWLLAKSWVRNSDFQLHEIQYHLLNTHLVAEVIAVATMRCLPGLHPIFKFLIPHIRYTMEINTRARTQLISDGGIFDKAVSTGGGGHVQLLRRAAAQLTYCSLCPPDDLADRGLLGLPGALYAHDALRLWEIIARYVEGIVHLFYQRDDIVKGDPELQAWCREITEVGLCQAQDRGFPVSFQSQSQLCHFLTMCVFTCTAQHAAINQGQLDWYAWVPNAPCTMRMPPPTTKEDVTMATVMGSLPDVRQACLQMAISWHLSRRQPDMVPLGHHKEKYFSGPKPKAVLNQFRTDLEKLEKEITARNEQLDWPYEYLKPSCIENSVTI", "assay": "Lipoxygenase 12-LO Eurofins-Panlabs enzyme assay", "design": "substrate with concentration", "settings": "Compound concentration 10.0 uM"}, "Homo sapiens": {"species": "Homo sapiens", "assay": "(§1) Protein Serine/Threonine Kinase, MAPK14 (p38α) Eurofins-Panlabs enzyme assay", "design": "substrate with concentration 10 µg/mL Myelin Basic Protein (MBP), incubation time 60 min, incubation temperature 25 °C"}, "[5]": {"assay": "as §1", "design": "species or system Homo sapiens; substrate with concentration 10 µg/mL Myelin Basic Protein (MBP), incubation time 60 min, incubation temperature 25 °C"}, "Rattus norvegicus": {"species": "Rattus norvegicus", "settings": "Compound concentration 10.0 uM"}, "[6]": {"target": "Bombesin receptor (Rattus norvegicus) (UniProt P52500+P24053+Q8K418)", "assay": "Bombesin, Non-Selective Eurofins-Panlabs radioligand binding assay", "format": "protein assay", "settings": "Compound concentration 10.0 uM"}, "[7]": {"target": "Macrophage metalloelastase (Homo sapiens) (UniProt P39900)", "sequence (P39900 106-470 limits assumed)": "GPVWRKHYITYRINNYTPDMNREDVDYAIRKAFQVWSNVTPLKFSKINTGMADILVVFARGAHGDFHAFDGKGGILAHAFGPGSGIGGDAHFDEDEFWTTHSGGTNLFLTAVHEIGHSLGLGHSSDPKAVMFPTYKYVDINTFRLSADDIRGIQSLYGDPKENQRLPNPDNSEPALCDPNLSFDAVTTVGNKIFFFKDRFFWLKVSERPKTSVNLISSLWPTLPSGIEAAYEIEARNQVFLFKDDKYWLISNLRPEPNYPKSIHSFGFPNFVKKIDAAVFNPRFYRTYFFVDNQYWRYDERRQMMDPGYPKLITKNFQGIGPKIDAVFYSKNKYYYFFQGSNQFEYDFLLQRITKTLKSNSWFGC", "assay": "Peptidase, Matrix Metalloproteinase-12 (MMP-12) Eurofins-Panlabs enzyme assay", "settings": "Compound concentration 10.0 uM"}, "[8]": {"target": "Vascular endothelial growth factor receptor 1 (Homo sapiens) (UniProt P17948)", "sequence (P17948 whole entry)": "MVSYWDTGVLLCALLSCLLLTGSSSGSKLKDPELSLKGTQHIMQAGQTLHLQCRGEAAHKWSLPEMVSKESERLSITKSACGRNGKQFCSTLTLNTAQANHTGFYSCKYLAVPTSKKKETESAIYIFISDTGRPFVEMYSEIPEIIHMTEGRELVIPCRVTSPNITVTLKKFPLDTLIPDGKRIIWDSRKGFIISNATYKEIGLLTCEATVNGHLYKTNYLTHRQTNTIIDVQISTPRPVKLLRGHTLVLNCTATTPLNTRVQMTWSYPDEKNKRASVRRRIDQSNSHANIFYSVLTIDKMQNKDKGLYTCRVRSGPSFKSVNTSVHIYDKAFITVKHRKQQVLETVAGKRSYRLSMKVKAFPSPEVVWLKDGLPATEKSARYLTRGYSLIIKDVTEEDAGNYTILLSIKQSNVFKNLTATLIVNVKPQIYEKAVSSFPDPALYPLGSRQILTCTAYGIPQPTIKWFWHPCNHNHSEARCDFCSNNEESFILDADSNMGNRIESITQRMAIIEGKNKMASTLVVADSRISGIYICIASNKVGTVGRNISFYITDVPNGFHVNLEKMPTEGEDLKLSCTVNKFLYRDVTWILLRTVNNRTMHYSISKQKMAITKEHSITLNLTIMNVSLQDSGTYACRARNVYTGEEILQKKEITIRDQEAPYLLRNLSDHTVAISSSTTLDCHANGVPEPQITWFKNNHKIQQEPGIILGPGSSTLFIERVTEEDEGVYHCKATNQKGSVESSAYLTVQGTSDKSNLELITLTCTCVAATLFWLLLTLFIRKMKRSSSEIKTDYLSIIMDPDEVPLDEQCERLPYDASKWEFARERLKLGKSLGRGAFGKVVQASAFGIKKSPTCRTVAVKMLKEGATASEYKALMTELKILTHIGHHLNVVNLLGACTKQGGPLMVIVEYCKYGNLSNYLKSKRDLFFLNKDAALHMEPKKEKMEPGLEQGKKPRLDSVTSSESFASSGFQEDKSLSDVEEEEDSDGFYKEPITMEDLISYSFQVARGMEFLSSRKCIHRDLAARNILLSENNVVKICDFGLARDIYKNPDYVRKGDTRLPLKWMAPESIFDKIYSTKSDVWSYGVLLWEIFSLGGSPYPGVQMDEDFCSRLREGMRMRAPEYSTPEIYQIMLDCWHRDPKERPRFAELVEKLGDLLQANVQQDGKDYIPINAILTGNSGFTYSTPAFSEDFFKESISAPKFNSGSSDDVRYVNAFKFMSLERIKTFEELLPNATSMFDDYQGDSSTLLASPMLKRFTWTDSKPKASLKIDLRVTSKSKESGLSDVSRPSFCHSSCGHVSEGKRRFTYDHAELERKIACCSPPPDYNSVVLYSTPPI", "assay": "Protein Tyrosine Kinase, FLT1 (VEGFR-1) Eurofins-Panlabs enzyme assay", "settings": "Compound concentration 10.0 uM"}, "[9]": {"target": "Adenosine Transporter (Cavia porcellus) (UniProt H0V4R7+H0UUG1+H0V3Z5)", "assay": "Inhibition of Transporter, Adenosine at compound concentration of 10.0 uM in the Eurofins-Panlabs radioligand binding assay (Eurofins_assay_202000)", "format": "protein assay", "design": "ligand concentration 0.5 nM, non-specific ligand with concentration 5 uM Nitrobenzylthioinosine, incubation time 30 min, incubation temperature 25 C", "settings": "Compound concentration 10.0 uM"}, "[10]": {"target": "Muscarinic acetylcholine receptor M3 (Homo sapiens) (UniProt P20309)", "sequence (P20309 whole entry, looked up)": "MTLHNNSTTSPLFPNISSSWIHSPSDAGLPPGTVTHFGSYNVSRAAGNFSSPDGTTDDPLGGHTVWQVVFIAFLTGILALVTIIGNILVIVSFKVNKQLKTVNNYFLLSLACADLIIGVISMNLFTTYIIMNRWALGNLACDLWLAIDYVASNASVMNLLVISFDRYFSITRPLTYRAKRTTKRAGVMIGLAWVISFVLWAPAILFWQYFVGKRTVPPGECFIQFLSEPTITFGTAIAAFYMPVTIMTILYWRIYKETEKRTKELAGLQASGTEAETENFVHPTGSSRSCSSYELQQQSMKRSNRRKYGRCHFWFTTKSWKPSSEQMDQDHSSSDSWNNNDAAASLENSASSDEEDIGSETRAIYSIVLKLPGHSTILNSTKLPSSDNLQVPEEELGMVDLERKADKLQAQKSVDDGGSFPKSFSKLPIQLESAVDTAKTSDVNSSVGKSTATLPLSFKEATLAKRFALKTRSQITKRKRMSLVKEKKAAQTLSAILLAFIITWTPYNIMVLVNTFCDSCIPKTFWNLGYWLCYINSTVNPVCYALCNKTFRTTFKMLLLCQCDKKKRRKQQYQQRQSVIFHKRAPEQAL", "settings": "Compound concentration 10.0 uM"}},
  "data": [
    {"smiles": "O=C(O)c1cc(-c2ccc(C3CCNCC3)cc2)c2ccc(-c3ccc(C(F)(F)F)cc3)cc2c1", "note": "[PPTN]", "values": [
      {"measurement": "inhibition", "setting": "[1]", "value": 42, "unit": "%"},
      {"measurement": "inhibition", "setting": "[2]", "value": -1, "unit": "%"},
      {"measurement": "inhibition", "setting": "[3]", "value": -5, "unit": "%"},
      {"measurement": "inhibition", "setting": "[4]", "value": 30, "unit": "%"},
      {"measurement": "inhibition", "setting": "Homo sapiens; Compound concentration 0.01 uM", "value": 9, "unit": "%"},
      {"measurement": "inhibition", "setting": "Homo sapiens; Compound concentration 0.1 uM", "value": 0, "unit": "%"},
      {"measurement": "inhibition", "setting": "Homo sapiens; Compound concentration 1.0 uM", "value": -7, "unit": "%"},
      {"measurement": "IC50", "setting": "[5]", "value": 2.94, "unit": "nM"},
      {"measurement": "inhibition", "setting": "Rattus norvegicus", "value": 3, "unit": "%"},
      {"measurement": "inhibition", "setting": "[6]", "value": 4, "unit": "%"},
      {"measurement": "inhibition", "setting": "[7]", "value": -1, "unit": "%"},
      {"measurement": "inhibition", "setting": "[8]", "value": -2, "unit": "%"},
      {"measurement": "inhibition", "setting": "[9]", "value": 9, "unit": "%"},
      {"measurement": "inhibition", "setting": "[10]", "value": 11, "unit": "%"}
    ]}
  ]
}
